This is an account of results in patent publication US11878075B2, “Sustained release formulations of dysoxylum binefacterum” (COUNCIL OF SCIENTIFIC AND INDUSTRIAL RESEARCH, priority 2018, dated 2024).

A value given as a limit tells only on which side of the number the result lay.

Data set [1] in a line: pH dependent stability of rohitukine. The following applies: pH 1.2 buffer, pH 4.0 buffer, phosphate buffer pH 6.8, PBS pH 7.4, SGF (pH 1.2), SIF (pH 6.8) and plasma up to 24 hrs. Type of data set: physicochemical. On the procedure: The stability of rohitukine was performed in pH 1.2 buffer, pH 4.0 buffer, phosphate buffer pH 6.8, phosphate buffered saline pH 7.4, SGF (pH 1.2), SIF (pH 6.8) and plasma up to 24 hrs. The % of rohitukine hydrolyzed was determined by HPLC analysis. The HPLC analysis was carried out using the method as described in example 1.

The test system of data set [2] is TNF-alpha production in THP-1 cells. Description: In-vitro cytokine inhibition in LPS-stimulated THP-1 cells (TNF-α ELISA). The note with it: THP-1 cells, 1.56, 3.12, and 6.25 μg/mL. Type of data set: cell-based, human. On the procedure: For the in vitro analysis of pro-inflammatory cytokine (TNF-α), human leukemia THP-1 cells were seeded in a 24-well plate at a density of 4×10^5 cells/ml of RPMI medium per well. THP-1 cells were then treated with PMA (20 ng/ml) for differentiation into macrophages for 18 h followed by a rest period of 48 h. Cells were further co-treated with test samples and 1 μg/ml of lipopolysaccharide (LPS) in a serum-free medium. Culture supernatant was harvested after 24 h for analysis of TNF-α by using OptEIA ELISA Kits from BD Biosciences. Total protein content for all the samples was calculated by using Bradford reagent from Bio-Rad Laboratories. All samples were normalized by dividing cytokine concentration with total quantity of protein. Betamethasone was used as positive control in this study.
For orientation: An ELISA detects its analyte on a solid surface through an enzyme-linked reagent.

The nature of data set [3]: in vivo. The note with it: male, SD, rat. As for the experimental part:
The pharmacokinetic study was performed in male SD rats. First the pharmacokinetic study of “rohitukine” was performed by both intravenous as well as per oral (PO) routes in order to understand the oral exposure and oral bioavailability of rohitukine. Rohitukine was administered at 5 mg/kg by IV route and at 50 mg/kg by oral route. For comparative oral pharmacokinetic study of plain extract (A002-AEF) and SR formulation “SR-A002-AEF” formulation (filled in 9e1 capsules), the dose equivalent to 6.77 mg/kg dose of rohitukine was administered in SD rats in both these groups. Blood samples were collected (n=3/time point) at 0.083 (IV only), 0.25, 0.5, 1, 2, 4, 8 and 24 h, post-dose. At each time point about 200 μL of blood was collected by jugular vein into a labeled microfuge tube containing 200 mM K2EDTA solution (20 μL per mL of blood) and equivalent volume of heparinized saline was replaced following sample collection. The blood samples were processed to obtain the plasma samples within 30 min of scheduled sampling time. All plasma samples were stored below −60° C. until bioanalysis. The plasma samples were analyzed for rohitukine content using a fit-for purpose LC-MS/MS method with a lower limit of quantification (LLOQ) of 9.95 ng/mL. The pharmacokinetic parameters of rohitukine were calculated using the non-compartmental analysis tool of validated Phoenix® WinNonlin® software (version 6.3).

In data set [4] the test system is TNF-α. Description: LPS induced septic shock model, serum TNF-α ELISA. Type of data set: in vivo, BALB/C mice. The note with it: 20 mg/kg (PO). As for the experimental part:
The effect of rohitukine, hydroalcoholic extract (A002-A) and rohitukine-enriched fraction (A002-AEF) on TNF-α secretion was studied in LPS induced septic shock model in BALB/C mice. BALB/C female mice (20-25 g) were randomly divided into 6 groups (n=4 per group). Animals were treated according to the following pattern: group 1 (vehicle), group 2 (LPS, 20 mg/kg), group 3 (Rohitukine, 20 mg/kg), group 4 (A002-A, 200 mg/kg), group 5 (A002-AEF, 200 mg/kg), group 6 (dexamethasone, 10 mg/kg). The hydroalcholic extract (A002-A) and its enriched fraction A002-AEF was dissolved in water and dexamethasone was dissolved in PBS. PBS/water was used as a vehicle control. Compounds and vehicle were administered perorally for 1 h prior to treatment with LPS. LPS was injected through intraperitoneal route for 5 h. Blood was collected and serum was extracted for performing ELISA analysis of TNF-α cytokine. The ELISA was performed according to manufacturer's instructions (BD Bioscience). The absorbance was measured at 450 nm and each estimated cytokine value was normalized with total serum protein.

Data set [5] relates to TNF-α. Description: Collagen induced arthritis model, serum TNF-α. The format is in vivo, DBA/1J mice. As for the experimental part: (§1) Six weeks old DBA/1J mice (procured from Jackson Laboratories, USA) were used in this study. On the day of the immunization (day 1), required amount of Chicken collagen II (CII), 2 mg/ml (Chondrex Inc, USA) stock solution was thawed at 4° C. into a small (20 ml) glass bottle. Equal volume of CII solution was added to the complete Freund's adjuvant (CFA), 1 mg/ml, (Sigma aldrich, USA) in 1:1 ratio and homogenized at 4° C. to produce a homogenous, stiff, white creamy emulsion for immunization. Mice were weighed and anesthetized with isoflurane. 150 μl of CII/CFA (1:1) emulsion was injected intradermally at two different sites into the mice lower back (previously shaven) on day 1. Mice were given the booster on day-21 in a similar manner as day 1 except that CII was emulsified in incomplete Freund's adjuvant. Mice were given booster of LPS from E. coli (50 μg/mouse; Sigma Aldrich, USA) on day 28. Dosing of the test samples in DBA/1J mouse CIA model was initiated after development of clinical symptoms. Animals were randomized into different treatment groups based on clinical scores on day 33. Treatment continued from day 34 to day 48. Serum IL-6, TNF-α estimation was done using ELISA kit from R & D Systems, USA. All values are expressed as Mean±SEM. * p<0.05 as compared to vehicle treatment, one way ANOVA followed by Dunnett's multiple comparison test.

Data set [6] concerns IL-6. Description: Collagen induced arthritis model, serum IL-6. Type of data set: in vivo, DBA/1J mice. The following applies: oral administration in arthritic mice, day 34 to day 48. As for the experimental part:
as §1

The conditions of data set [7]: rats, oral and intravenous administration; cited from earlier work.

As to `Cc1cc(=O)c2c(O)cc(O)c([C@H]3CCN(C)C[C@H]3O)c2o1` [rohitukine], the “stability of rohitukine (% hydrolyzed by HPLC)” value in data set [1] is reported as “stable at all the conditions tested”. For the same molecule, the “inhibition of LPS-stimulated TNF-alpha levels” value in data set [2] is “significant inhibition of TNF-alpha”. In data set [3], this molecule gave a bioavailability greater than 100%. For the same molecule, in data set [3] (iv, 5 mg/kg), the area under the curve AUC(0-t) is 1130 ng·h/mL, the clearance came out at 72.7 mL/min/kg, the “clearance relative to normal hepatic blood flow (55 mL/min/kg)” value is recorded as roughly 1.32 fold and the half-life is 22.9 min. Also, the “volume of distribution relative to normal total body water (0.7 L/kg)” value in data set [3] (iv, 5 mg/kg) is listed as roughly 2.41 fold. Further, in data set [3] (po, 50 mg/kg), the AUC(0-t) came out at 26400 ng·h/mL, the maximum concentration (Cmax) was found to be 14900 ng/mL, the half-life is 63.6 min and the “median time to reach the maximum plasma concentration” value stood at 0.25 h. In data set [4], the “serum TNF-alpha levels” value is “not able to significantly inhibit the serum TNF-alpha levels”. Further, the “serum TNF-alpha” value in data set [5] (5-15 mg/kg (PO) doses) is reported as “could not inhibit serum TNF-alpha”. Besides, in data set [5] (5-30 mg/kg doses), the “serum TNF-alpha cytokine” value was “no significant inhibition of TNF-alpha cytokine”. The “serum IL-6 cytokine levels” value in data set [6] is “decreased levels of serum IL-6 cytokine”. Moreover, in data set [7], the biological half-life is 1-2 h.
In the case of `Cc1cc(=O)c2c(O[C@@H]3OC(CO)[C@@H](O)[C@H](O)C3O)cc(O)cc2o1` (stereo partly drawn) [schumaniofioside A], the “inhibition of LPS-stimulated TNF-alpha levels” value in data set [2] is “significant inhibition of TNF-alpha”.

The bioavailability is dose-corrected exposure relative to a reference, in per cent. A higher bioavailability goes with much systemic uptake. As usually defined, the AUC(0-t) is the area under the concentration-time curve up to a stated or last time point. Lower therefore signals less exposure. Broadly, the clearance is a measure of how efficiently the substance is removed, as volume per time. High values mean efficient removal, low ones inefficient removal. Broadly, the half-life is how long it takes for the measured level to halve. Higher therefore signals slow decline. The Cmax is the maximum level reached in the sampled fluid or tissue.
